The conditions of data set [1]: cited from earlier work.
Another data set relates to HIV. The settings on record: LDN alone on HIV+ subjects; stated by Bihari; cited from earlier work.
The nature of data set [2]: Treatment of mild myocarditis / tachycardia in subjects. Format: in vivo, human. The note with it: for Response of mild myocarditis: four subjects. From the text:
Rogers et. al. described an IRIS case which manifested in the form of fulminant myocarditis. […] All four subjects of the instant experiment had no previous heart condition and were started with the HC alone, but were given LDN after the first mortality had occurred.
They were turned down several times to be a participant in the herbal program because they refused to take their spouse for counseling. […] They were diagnosed with borderline cardiomegaly around one year after initially testing HIV positive, and developed tachycardia, but had no subjective complaint and never developed fever. We maintained them on Lanoxin 250 μg, which controlled their heart rate below 100 beats/minute, and also started them on LDN.

Data set [3] in a line: Clinical observation of adverse effects. Type of data set: in vivo, human. The note with it: 960 mg tablets daily. The procedure: Patients were tested weekly for progress and toxicities. We then determined a dose which can be tolerated by most of the patients, and recruited more subjects. In a preferred embodiment, two HC's (one each, B.I.D), approximately equal to 500 mg of the active ingredients of U.S. Pat. No. 7,556,830 per day, are administered. However, adjustments must be made according to the body weight of the subject, and lesser or higher dosages of as low as 100 mg and as high as 1 g, can be deployed. As a majority of the patients' health improved, we progressively scheduled their appointments further apart, to once every two weeks, and then, on a monthly basis.

Regarding `O=C1CC[C@@]2(O)[C@H]3Cc4ccc(O)c5c4[C@@]2(CCN3CC2CC2)[C@H]1O5` [Naltrexone, 17-(cyclopropylmethyl)-4,5α-epoxy-3,14-dihydroxymorphinan-6-one], the Bioavailability in data set [1] was 5-40%. For the same compound, the “Effect on CD4 count” value with HIV is reported as “does not increase CD4 count, but only maintains its level or delays its decrease”.
Turning to `C[C@H]1O[C@@H](O[C@H]2[C@@H](O)C[C@H](O[C@H]3[C@@H](O)C[C@H](O[C@H]4CC[C@@]5(C)[C@H](CC[C@@H]6[C@@H]5C[C@@H](O)[C@]5(C)[C@@H](C7=CC(=O)OC7)CC[C@]65O)C4)O[C@@H]3C)O[C@@H]2C)C[C@H](O)[C@@H]1O` [digoxin], the “Response of mild myocarditis” value in data set [2] was “responded promptly”. Besides, the Heart rate entry in data set [2] (patient, tachycardia, 250 μg) is on record as “below 100 beats/minute”.
As to `NS(=O)(=O)c1cc(C(=O)O)c(NCc2ccco2)cc1Cl` [furosemide], the “Response of mild myocarditis” value in data set [2] is given as “responded promptly”.
cotrimoxazole: the Bone marrow suppression result in data set [3] is listed as “several patients developed bone marrow suppression”.
